This passage reports DC50 results from patent publication US20240190880A1 (THE REGENTS OF THE UNIVERSITY OF MICHIGAN, priority 2021, published 2024).

Bounds are passed on as bounds.

For one assay, the target named is T1, ER (Homo sapiens, UniProt P03372).
T1 construct: host or cells: T47D and MCF7 human breast cancer cells
T1 sequence (P03372 1-595): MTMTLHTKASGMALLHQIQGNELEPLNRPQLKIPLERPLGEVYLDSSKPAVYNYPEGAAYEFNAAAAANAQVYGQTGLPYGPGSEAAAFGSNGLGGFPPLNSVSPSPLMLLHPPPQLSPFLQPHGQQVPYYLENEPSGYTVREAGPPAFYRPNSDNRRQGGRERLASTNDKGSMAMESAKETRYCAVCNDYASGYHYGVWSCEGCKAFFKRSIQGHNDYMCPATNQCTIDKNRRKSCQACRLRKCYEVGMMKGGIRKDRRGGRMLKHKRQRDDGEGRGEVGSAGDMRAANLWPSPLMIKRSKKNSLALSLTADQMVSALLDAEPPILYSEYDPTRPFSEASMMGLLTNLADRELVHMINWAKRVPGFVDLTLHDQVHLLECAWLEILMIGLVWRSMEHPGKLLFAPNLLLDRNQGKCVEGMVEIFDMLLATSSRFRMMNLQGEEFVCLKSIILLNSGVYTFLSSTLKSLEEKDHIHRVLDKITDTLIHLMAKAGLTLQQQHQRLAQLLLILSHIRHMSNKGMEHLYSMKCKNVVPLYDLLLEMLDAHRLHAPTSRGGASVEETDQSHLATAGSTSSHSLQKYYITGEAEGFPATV
The assay is described as follows: ER degradation activity, in-cell western blot analysis in T47D cells. The conditions noted are these: 16 hours, Table A does not say which cell line (T47D or MCF7), read-out: Potency (DC50). Type of assay: cell-based. The essentials:
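In-cell western, T47D; compounds 16 h, 0.5% DMSO final; anti-rabbit-680/anti-mouse-800 secondaries, 1 h RT, dark; read on CLX imager. ER % vs untreated/DMSO wells (100%).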
Regarding `O=C1CCC(N2C(=O)c3cc4c(cc3C2=O)CN(CC2(F)CN(C(=O)C3CCN(c5ccc([C@@H]6c7ccc(O)cc7CC[C@@H]6c6ccccc6)cc5)CC3)C2)C4)C(=O)N1` (stereo partly drawn) [E 207, 2-(2,6-dioxopiperidin-3-yl)-6-((3-fluoro-1-(1-(4-((1R,2S)-6-hydroxy-2-phenyl-1,2,3,4-tetrahydronaphthalen-1-yl)phenyl)piperidine-4-carbonyl)azetidin-3-yl)methyl)-6,7-dihydropyrrolo[3,4-f]isoindole-1,3(2H,5H)-dione], the DC50 is above 100 nM.
The same measure, in the same setting: under `C[C@@H]1Cc2c([nH]c3ccccc23)[C@@H](c2c(F)cc(N3CC4(CN(C(=O)CN5Cc6cc7c(cc6C5)C(=O)N(C5CCC(=O)NC5=O)C7=O)C4)C3)cc2F)N1CC(F)F` (stereo partly drawn) [E 82, 6-(2-(6-(4-((1R,3R)-2-(2,2-difluoroethyl)-3-methyl-2,3,4,9-tetrahydro-1H-pyrido[3,4-b]indol-1-yl)-3,5-difluorophenyl)-2,6-diazaspiro[3.3]heptan-2-yl)-2-oxoethyl)-2-(2,6-dioxopiperidin-3-yl)-6,7-dihydropyrrolo[3,4-f]isoindole-1,3(2H,5H)-dione] stands below 10 nM.
Still for that read-out and setting: under `C[C@@H]1Cc2cc(O)ccc2[C@@H](c2c(F)cc(N3CCC(C(=O)N4CCC(N5Cc6cc7c(cc6C5)C(=O)N(C5CCC(=O)NC5=O)C7=O)CC4)CC3)cc2F)N1CC(F)F` (stereo partly drawn) [E 269, 6-(1-(1-(4-((1S,3R)-2-(2,2-difluoroethyl)-6-hydroxy-3-methyl-1,2,3,4-tetrahydroisoquinolin-1-yl)-3,5-difluorophenyl)piperidine-4-carbonyl)piperidin-4-yl)-2-(2,6-dioxopiperidin-3-yl)-6,7-dihydropyrrolo[3,4-f]isoindole-1,3(2H,5H)-dione] stands above 100 nM.
Turning to `C[C@@H]1Cc2c([nH]c3ccccc23)[C@@H](c2c(F)cc(C(=O)N3CCC4(CC3)CC(CN3Cc5cc6c(cc5C3)C(=O)N(C3CCC(=O)NC3=O)C6=O)C4)cc2F)N1CC(F)F` (stereo partly drawn) [E 369, 6-((7-(4-((1R,3R)-2-(2,2-difluoroethyl)-3-methyl-2,3,4,9-tetrahydro-1H-pyrido[3,4-b]indol-1-yl)-3,5-difluorobenzoyl)-7-azaspiro[3.5]nonan-2-yl)methyl)-2-(2,6-dioxopiperidin-3-yl)-6,7-dihydropyrrolo[3,4-f]isoindole-1,3(2H,5H)-dione], the DC50 is above 100 nM.
Still for that read-out and setting: under `O=C1CCC(N2C(=O)c3cc4c(cc3C2=O)CN(CC(=O)N2CC3(CCC(Oc5ccc([C@@H]6c7ccc(O)cc7CC[C@@H]6c6ccccc6)cc5)CC3)C2)C4)C(=O)N1` (stereo partly drawn) [E 223, 2-(2,6-dioxopiperidin-3-yl)-6-(2-(7-(4-((1R,2S)-6-hydroxy-2-phenyl-1,2,3,4-tetrahydronaphthalen-1-yl)phenoxy)-2-azaspiro[3.5]nonan-2-yl)-2-oxoethyl)-6,7-dihydropyrrolo[3,4-f]isoindole-1,3(2H,5H)-dione] stands above 100 nM.
The same measure, in the same setting: under `O=C1CCC(N2C(=O)c3cc4c(cc3C2=O)CN(CC(=O)N2CC3(CCN(c5ccc([C@@H]6c7ccc(O)cc7CC[C@@H]6c6ccccc6)cc5)CC3)C2)CCC4)C(=O)N1` (stereo partly drawn) [E 171, 2-(2,6-dioxopiperidin-3-yl)-6-(2-(7-(4-((1R,2S)-6-hydroxy-2-phenyl-1,2,3,4-tetrahydronaphthalen-1-yl)phenyl)-2,7-diazaspiro[3.5]nonan-2-yl)-2-oxoethyl)-6,7,8,9-tetrahydroazepino[3,4-f]isoindole-1,3(2H,5H)-dione] stands above 100 nM.
Still for that read-out and setting: under `C[C@@H]1Cc2c([nH]c3ccccc23)[C@@H](c2c(F)cc(N3CC[C@@H](CN4CCC(C(=O)N5Cc6cc7c(cc6C5)C(=O)N(C5CCC(=O)NC5=O)C7=O)CC4)C3)cc2F)N1CC(F)F` (stereo partly drawn) [E 91, 6-(1-(((S)-1-(4-((1R,3R)-2-(2,2-difluoroethyl)-3-methyl-2,3,4,9-tetrahydro-1H-pyrido[3,4-b]indol-1-yl)-3,5-difluorophenyl)pyrrolidin-3-yl)methyl)piperidine-4-carbonyl)-2-(2,6-dioxopiperidin-3-yl)-6,7-dihydropyrrolo[3,4-f]isoindole-1,3(2H,5H)-dione] stands below 10 nM; under `O=C1CCC(N2C(=O)c3cc4c(cc3C2=O)CN(CC2(F)CCN(C(=O)C3CN(c5ccc([C@@H]6c7ccc(O)cc7CC[C@@H]6c6ccccc6)cc5)C3)CC2)C4)C(=O)N1` (stereo partly drawn) [E 199, 2-(2,6-dioxopiperidin-3-yl)-6-((4-fluoro-1-(1-(4-((1R,2S)-6-hydroxy-2-phenyl-1,2,3,4-tetrahydronaphthalen-1-yl)phenyl)azetidine-3-carbonyl)piperidin-4-yl)methyl)-6,7-dihydropyrrolo[3,4-f]isoindole-1,3(2H,5H)-dione], above 100 nM; under `C[C@@H]1Cc2c([nH]c3ccccc23)[C@@H](c2c(F)cc(C3CCC(C(=O)N4CCC(F)(CN5Cc6cc7c(cc6C5)C(=O)N(C5CCC(=O)NC5=O)C7=O)CC4)CC3)cc2F)N1CC(F)F` (stereo partly drawn) [E247, 6-((1-(4-(4-((1R,3R)-2-(2,2-difluoroethyl)-3-methyl-2,3,4,9-tetrahydro-1H-pyrido[3,4-b]indol-1-yl)-3,5-difluorophenyl)cyclohexane-1-carbonyl)-4-fluoropiperidin-4-yl)methyl)-2-(2,6-dioxopiperidin-3-yl)-6,7-dihydropyrrolo[3,4-f]isoindole-1,3(2H,5H)-dione], 10 to 100 nM.
`O=C1CCC(N2C(=O)c3cc4c(cc3C2=O)CN(CC2(F)CN(CC3CCN(c5ccc([C@@H]6c7ccc(O)cc7CC[C@@H]6c6ccccc6)cc5)CC3)C2)C4)C(=O)N1` (stereo partly drawn) [E 212, 2-(2,6-dioxopiperidin-3-yl)-6-((3-fluoro-1-((1-(4-((1R,2S)-6-hydroxy-2-phenyl-1,2,3,4-tetrahydronaphthalen-1-yl)phenyl)piperidin-4-yl)methyl)azetidin-3-yl)methyl)-6,7-dihydropyrrolo[3,4-f]isoindole-1,3(2H,5H)-dione]: the DC50 was above 100 nM.
With `C[C@@H]1Cc2c([nH]c3ccccc23)[C@H](c2c(F)cc(CN3CCC4(CCC(C(=O)N5Cc6cc7c(cc6C5)C(=O)N(C5CCC(=O)NC5=O)C7=O)CC4)CC3)cc2F)N1CC(F)F` (stereo partly drawn) [E 383, 6-(3-(4-((1S,3R)-2-(2,2-difluoroethyl)-3-methyl-2,3,4,9-tetrahydro-1H-pyrido[3,4-b]indol-1-yl)-3,5-difluorobenzyl)-3-azaspiro[5.5]undecane-9-carbonyl)-2-(2,6-dioxopiperidin-3-yl)-6,7-dihydropyrrolo[3,4-f]isoindole-1,3(2H,5H)-dione], the DC50 is above 100 nM.

The assay is the same for the next values; noted with them: compounds 16 hours, Table A does not say whether T47D or MCF7, read-out: Potency (DC50).
With `O=C1CCC(N2Cc3cc4c(cc3C2=O)C(=O)N(CC2CN(CC3CCN(c5ccc([C@@H]6c7ccc(O)cc7CC[C@@H]6c6ccccc6)cc5)CC3)C2)C4)C(=O)N1` (stereo partly drawn) [E 508, 2-(2,6-dioxopiperidin-3-yl)-6-((1-((1-(4-((1R,2S)-6-hydroxy-2-phenyl-1,2,3,4-tetrahydronaphthalen-1-yl)phenyl)piperidin-4-yl)methyl)azetidin-3-yl)methyl)-2,3,5,6-tetrahydropyrrolo[3,4-f]isoindole-1,7-dione], the half-maximal degradation concentration (DC50) was above 100 nM.
With `COc1c2c(cc3c1CN(C1CCC(=O)NC1=O)C3=O)CN(CC(=O)N1CCC3(CC1)CCN(c1cc(F)c([C@@H]4c5[nH]c6ccccc6c5C[C@@H](C)N4CC(F)F)c(F)c1)CC3)C2` (stereo partly drawn) [E 444, 3-(6-(2-(9-(4-((1R,3R)-2-(2,2-difluoroethyl)-3-methyl-2,3,4,9-tetrahydro-1H-pyrido[3,4-b]indol-1-yl)-3,5-difluorophenyl)-3,9-diazaspiro[5.5]undecan-3-yl)-2-oxoethyl)-4-methoxy-1-oxo-3,5,6,7-tetrahydropyrrolo[3,4-f]isoindol-2(1H)-yl)piperidine-2,6-dione], the DC50 is below 10 nM.
Still for that read-out and setting: under `C[C@@H]1Cc2c([nH]c3ccccc23)[C@@H](c2cnc(N3CCC4(CC3)CC(CN3Cc5cc6c(cc5C3)C(=O)N(C3CCC(=O)NC3=O)C6=O)C4)nc2)N1CC(F)F` (stereo partly drawn) [E 474, 6-((7-(5-((1R,3R)-2-(2,2-difluoroethyl)-3-methyl-2,3,4,9-tetrahydro-1H-pyrido[3,4-b]indol-1-yl)pyrimidin-2-yl)-7-azaspiro[3.5]nonan-2-yl)methyl)-2-(2,6-dioxopiperidin-3-yl)-6,7-dihydropyrrolo[3,4-f]isoindole-1,3(2H,5H)-dione] stands 10 to 100 nM.
The same measure, in the same setting: under `O=C1CCC(N2C(=O)c3cc4c(cc3C2=O)CN(CC(=O)N2CCC3(CC2)CN(C(=O)c2ccc([C@@H]5c6ccc(O)cc6CC[C@@H]5c5ccccc5)cc2)C3)C4)C(=O)N1` (stereo partly drawn) [E 496, 2-(2,6-dioxopiperidin-3-yl)-6-(2-(2-(4-((1R,2S)-6-hydroxy-2-phenyl-1,2,3,4-tetrahydronaphthalen-1-yl)benzoyl)-2,7-diazaspiro[3.5]nonan-7-yl)-2-oxoethyl)-6,7-dihydropyrrolo[3,4-f]isoindole-1,3(2H,5H)-dione] stands above 100 nM.
